Earlier results as cited in patent US20250283177A1, “BIOMARKERS AND METHODS OF USE THEREOF FOR TREATMENT OF PERIPHERAL T-CELL LYMPHOMA” (BOARD OF REGENTS OF THE UNIVERSITY OF NEBRASKA, priority 2022, published 2025).
Where two headings read alike, the source gives them in different places.

B1: mogamulizumab (antibody, chains of the INN, looked up, V domains shown)
VH: EVQLVESGGDLVQPGRSLRLSCAASGFIFSNYGMSWVRQAPGKGLEWVATISSASTYSYYPDSVKGRFTISRDNAKNSLYLQMNSLRVEDTALYYCGRHSDGNFAFGYWGQGTLVTVSS
VL: DVLMTQSPLSLPVTPGEPASISCRSSRNIVHINGDTYLEWYLQKPGQSPQLLIYKVSNRFSGVPDRFSGSGSGTDFTLKISRVEAEDVGVYYCFQGSLLPWTFGQGTKVEIK

Assays:
[1] = test system: peripheral T-cell lymphoma (PTCL); conditions: for Overall response rate by common subtype: Phase II studies

Molecule	Benefit in PTCL subgroup (subgroups of PTCL; ALK+ALCL)	Responsiveness to therapy ([1]; ALK(−) ALCL)	Overall response rate by common subtype ([1]; subtype AITL) [%]	Overall response rate by common subtype ([1]; subtype ALCL) [%]	Overall response rate by common subtype ([1]; subtype PTCL-NOS) [%]	Benefit in PTCL subgroup (subgroups of PTCL; CD30+ PTCL, particularly ALCL)	Benefit in PTCL subgroup (subgroups of PTCL; ATLL)
C[C@@H](Oc1cc(-c2cnn(C3CCNCC3)c2)cnc1N)c1c(Cl)ccc(F)c1Cl [Crizotinib]	striking benefits						
Brentuximab vedotin		highly responsive	54	86	33	striking benefits	
C#CCC(Cc1cnc2nc(N)nc(N)c2n1)c1ccc(C(=O)N[C@@H](CCC(=O)O)C(=O)O)cc1 (stereo partly shown) [Pralatrexate]			8	29	31		
O=C(/C=C/c1cccc(S(=O)(=O)Nc2ccccc2)c1)NO [Belinostat]			46	15	23		
B1							striking benefits
